Reference: US8722850B2, “Self-assembling peptides and their use in the formation of hydrogels” (Universita' Degli Studi di Milano Bicocca, priority 2010, dated 2014)
“Also recorded” adds a separate entry of the source. Where a SMILES comes first, the peptide text is derived from it. The star is where a group is joined. Biotin = O=C1N[C@H]2[C@H](CS[C@H]2CCCCC(=O)*)N1

Tests used:
[1] = system: human Neural Stem Cells (hNSCs); experiment: Live/Dead cell imaging (calcein AM / ethidium homodimer); type: cell-based; conditions: cells cultured for 10 days
Procedure: In vitro tests were performed following a previously adopted methodology (5). Briefly, cells (at a concentration of 6×10^4 cells/cm^2) were seeded on the top-surface of each assembled scaffold previously assembled into 96 multiwells. Initially, cells were cultured with basal medium supplemented with βFGF (10 ng/ml), added to enhance neuronal progeny differentiation. At 3 days in vitro (DIV), βFGF medium was replaced with Leukemia Inhibitory Factor (LIF, Chemicon) (20 ng/ml) and Brain Derived Neurotrophic Factor (BDNF, Peprotech) (20 ng/ml). Fresh medium was added every three days. Positive and negative controls consisted of CULTREX-BME® substrate (R&D systems) (1:100 dilution in basal medium) and untreated bottom well surfaces respectively.
Live/Dead cell imaging (MolecularProbes) was obtained by incubating cells cultured for 10 days with a staining solution containing 2.0 μM calcein AM and 4.0 μM ethidium homodimer in PBS at 37° C. for 60 min and visualized by inverted fluorescence microscope (Zeiss).

spinal cord of rats [2] = experiment: In vivo toxicity / biocompatibility, injections into the spinal cord, 3 days; conditions: three days after injection, versus saline
Procedure: (§1) To test if the SAPs according to the present invention show any toxicity when used in vivo we assessed the tissue reaction to multiple injections of B24 into the spinal cord of rats. All procedures involving animals were performed according to EC guidelines (EC Council Directive 86/609, 1987), to the Italian legislation on animal is experimentation (Decreto L. vo 116/92) and to protocols approved by the Animal Care and Use Committee of the University of Milan-Bicocca (IACUC 37/07).
Female Sprague-Dawley rats weighting 200-250 gr (Charles River Laboratories) were divided into two groups: 1) animals receiving injections of saline solution (control group, n=3) and 2) animals treated with B24 (n=3). In the case of long term observations (1 month) similar injections of B24 were used (n=2). Rats were anesthetized with an intraperitoneal injection of ketamine (80 mg/kg) and xylazine (10 mg/kg). The spinal cord was exposed at the T9-T10 level, and, after laminectomy, animals were injected with B24 (1% aqueous solution) or saline solution using a Hamilton syringe held via a micromanipulator. The solutions were delivered at distances of 500 μm, and two injections of 0.5 μl each were made at each interval, for a total dose of 3 μl. After injection, the muscles were sutured and the skin was closed with wound clips. Rats were treated daily with analgesic (carprofen, 5 mg/kg) and antibiotic (enrofloxacin, 5 mg/kg). 3 days after surgery (for toxicity tests) or 1 month after surgery (nervous regeneration tests) animals were sacrificed by transcardial perfusion with 4% paraformaldehyde. Spinal cords were removed, embedded in OCT, frozen and sliced into 16 μm thick longitudinal sections. For immunofluorescence analysis slices were permeabilized and blocked with PBS/0.3% TritonX-100/10% Normal Goat Serum (NGS) for 1 hour at room temperature. […]

spinal cord of rats [3] = experiment: In vivo nervous regeneration test, spinal cord injections, 1 month; conditions: one month after injections
Procedure: as §1
Female Sprague-Dawley rats weighting 200-250 gr (Charles River Laboratories) were divided into two groups: 1) animals receiving injections of saline solution (control group, n=3) and 2) animals treated with B24 (n=3). In the case of long term observations (1 month) similar injections of B24 were used (n=2). Rats were anesthetized with an intraperitoneal injection of ketamine (80 mg/kg) and xylazine (10 mg/kg). The spinal cord was exposed at the T9-T10 level, and, after laminectomy, animals were injected with B24 (1% aqueous solution) or saline solution using a Hamilton syringe held via a micromanipulator. The solutions were delivered at distances of 500 μm, and two injections of 0.5 μl each were made at each interval, for a total dose of 3 μl. After injection, the muscles were sutured and the skin was closed with wound clips. […]

`C[C@H](NC(=O)CNC(=O)CNC(=O)CNC(=O)CCCC[C@@H]1SC[C@@H]2NC(=O)N[C@@H]21)C(=O)N[C@@H](Cc1ccccc1)C(=O)N[C@@H](C)C(=O)N[C@@H](CO)C(=O)N[C@H](C(=O)N[C@@H](CCCCN)C(=O)N[C@H](C(N)=O)[C@@H](C)O)[C@@H](C)O` [peptide B24] (Biotin-GGGAFASTKT-NH2) was tested, and the live/dead cell imaging [1] was “distributed throughout the gel top surface; also recorded: a layer of widely branched cells”, the “apoptotic cells (Tunel)” value (spinal cord of rats [2]) was “negligible number” and the “infiltrated macrophages (CD68)” value (spinal cord of rats [2]) was “negligible number”. For the same compound, the “neurofilament H dephosphorilated (degenerating) nervous fibers” value (spinal cord of rats [2]) was “equally present in saline-injected and in B24-treated animals” and the “chronic inflammation in the spinal cord” value (spinal cord of rats [3]) was “did not exert any chronic inflammation”.
